Results on 13 compounds are retold here after patent US20220348595A1, “COMPOUNDS AND METHODS FOR THE TARGETED DEGRADATION OF ESTROGEN RECEPTORS” (Endotarget Inc., priority 2021, published 2022).

What all share (assay type): cell-based
Assay [1] has as its system MCF-7 breast cancer cells. Kind of assay: MCF-7 proliferation / cell viability assay. The settings on record: Homo sapiens, MCF7; MCF-7 proliferation with 0.1 nM 17-beta estradiol; read-out: IC50 (anti-proliferation). On the procedure:
The Anti-Proliferative Activities of the Exemplary Compounds were Assessed by a Cell Viability Assay in MCF-7 Breast Cancer Cells
MCF-7 cells were plated in six-well plates at a density of 50,000 each well in 5% FBS DMEM medium. The cells were then treated with exemplary compounds or fulvestrant separately at 6 different doses ranging from 10^−10 M to 10^−5 M for 5 days, while equal volumes of DMSO were used as vehicle controls. Viable cell numbers were counted with a Z Series Coulter Counter instrument (Beckman-Coulter) following manufacturer's instructions. The ratio of drug treated viable cell numbers to vehicle treated viable cell numbers was defined as survival ratio where the control has the survival ratio of 100%.

The target of a further assay is T1, ERα (Homo sapiens, UniProt P03372).
T1 construct: endogenous in cells; host or cells: MCF-7
T1 sequence (P03372 1-595): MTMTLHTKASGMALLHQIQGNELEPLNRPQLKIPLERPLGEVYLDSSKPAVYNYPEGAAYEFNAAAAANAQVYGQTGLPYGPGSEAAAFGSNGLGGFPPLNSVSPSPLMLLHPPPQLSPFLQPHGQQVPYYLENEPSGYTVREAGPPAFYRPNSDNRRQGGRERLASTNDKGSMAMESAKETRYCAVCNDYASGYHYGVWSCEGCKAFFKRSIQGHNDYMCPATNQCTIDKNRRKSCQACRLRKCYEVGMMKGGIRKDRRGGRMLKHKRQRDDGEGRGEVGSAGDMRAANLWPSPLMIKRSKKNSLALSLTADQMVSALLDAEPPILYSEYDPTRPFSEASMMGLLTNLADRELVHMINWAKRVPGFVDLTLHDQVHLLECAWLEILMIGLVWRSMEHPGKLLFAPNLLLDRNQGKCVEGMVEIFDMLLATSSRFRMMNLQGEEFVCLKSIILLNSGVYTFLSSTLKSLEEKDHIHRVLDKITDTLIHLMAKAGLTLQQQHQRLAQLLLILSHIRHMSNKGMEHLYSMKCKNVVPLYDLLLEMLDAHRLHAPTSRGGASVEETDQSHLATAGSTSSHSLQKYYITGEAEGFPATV
Kind of assay: ER degradation in MCF-7 cells (Western blot). The following applies: for DC50: ER degradation, 24 hours; for Dmax: MCF7, Maximal ER degradation, read-out: Dmax. On the procedure: Degradation of ER in MCF-7 Breast Cancer Cells by Exemplary Compounds of the Present Disclosure
MCF-7 cells were plated in 24-well plates at a density of 10^5 cells/well. Media containing various drug concentrations were added on the day following plating (day 0) and allowed to incubate for 24 hours for Western blot. Media with the tested compound was changed every other day. Cells were lysed, snapped frozen in liquid nitrogen, and stored at −80° C. until assay for ERα. Media were removed and dishes were washed with 1× DPBS. Lysates were made by adding 150 μL of complete lysis solution and scraping cells into a 1.5 mL microcentrifuge tube. Lysates were placed on a rotisserie at 4° C. for 30 min and then spun at 4° C. at 12000 rcf for 10 min. Supernatants were assayed for protein content, snap-frozen, and stored a −80° C. if not run immediately. Then 50 μg of protein was subjected to Western blot protocol. Membranes were blocked and then incubated with 1:200 dilution of ERα antibody at 4° C. overnight followed by 1:10000 dilution of secondary antibody for 1 h at room temperature. They were then imaged on a LICOR infrared scanner.
FIGS. 1 to 10 show the ER degradation efficacy of compounds 3, 5, 9, 11, 12, 16, 18, 19, 20, 21, 23, 24, 25, 26, 27, 28, 29, 30, 31, 32, 33, 34, 37, 38, and 40 in MCF-7 cells at various concentrations. Degradation of ER was expressed as an DC50 value and was determined for exemplary compounds in Table 1 by calculation of the concentration of compound that was required to give a 50% reduction of ER expression level. Maximal degradation of ER was expressed as a Dmax value by measuring the highest percentage of ER reduction achieved by exemplary compound in the treatment concentration range.
A general note: Immunoblotting shows a protein as a band on a membrane.

A further assay deals with T2, ER (Homo sapiens, UniProt P03372).
T2 construct: endogenous in cells; host or cells: T47d-kb-Luc (T47D stably transfected with a luciferase reporter gene only)
T2 sequence (P03372 1-595): T1 sequence (P03372 1-595)
Briefly: ER antagonism (T47D ERE luciferase), T47d-kb-Luc cells. The settings on record: read-out: IC50 (ER antagonistm). On the procedure: The Antiestrogenic Activity of the Exemplary Compounds was Assessed in T47d-kb-Luc Stably Transfected Human Breast Cancer Cell
Antagonist activities were measured by the compound's ability to inhibit the activity of estradiol, the natural estrogen. Data were then normalized relative to the activity of the estradiol control and determinations were performed for five concentrations of the samples in quadruplicate in at least three separate experiments.

The structures appear in SMILES notation.

For `CC/C(=C(\c1ccc(B(O)O)cc1)c1ccc(N2CCN(C(=O)N3CCC(CN4CCN(c5ccc6c(c5)CN(C5CCC(=O)NC5=O)C6=O)CC4)CC3)CC2)cc1)c1ccccc1` (stereo not shown) [Compound 114, (Z)-(4-(1-(4-(4-(4-((4-(2-(2,6-dioxopiperidin-3-yl)-1-oxoisoindolin-5-yl)piperazin-1-yl)methyl)piperidine-1-carbonyl)piperazin-1-yl)phenyl)-2-phenylbut-1-en-1-yl)phenyl)boronic acid], in assay [1], the IC50 is under 0.01 µM. Further, at ERα, the half-maximal degradation concentration (DC50) (commonly the midpoint of the concentration-degradation curve) was under 0.01 µM and the Dmax (commonly the greatest extent of degradation seen) was over 90%. On ER, the IC50 is under 0.01 µM.

Take `CC/C(=C(/c1ccc(OCCN2CCN(C(=O)N3CCN(c4ccc5c(c4)CN(C4CCC(=O)NC4=O)C5=O)CC3)CC2)cc1)c1ccc(B(O)O)cc1)c1ccccc1` (stereo not shown) [Compound 83, (Z)-(4-(1-(4-(2-(4-(4-(2-(2,6-dioxopiperidin-3-yl)-1-oxoisoindolin-5-yl)piperazine-1-carbonyl)piperazin-1-yl)ethoxy)phenyl)-2-phenylbut-1-en-1-yl)phenyl)boronic acid]: the IC50 in assay [1] is under 0.01 µM. At ERα, the DC50 is under 0.01 µM and the Dmax is over 90%. Further, at ER, the IC50 is under 0.01 µM.

For the compound `CC/C(=C(/c1ccc(OCCN2CCN(C(=O)N3CCN(c4ccc5c(c4)CN([C@@H]4CCC(=O)NC4=O)C5=O)CC3)CC2)cc1)c1ccc(B(O)O)cc1)c1ccccc1` [Compound 85, (R,Z)-(4-(1-(4-(2-(4-(4-(2-(2,6-dioxopiperidin-3-yl)-1-oxoisoindolin-5-yl)piperazine-1-carbonyl)piperazin-1-yl)ethoxy)phenyl)-2-phenylbut-1-en-1-yl)phenyl)boronic acid], the IC50 in assay [1] was under 0.01 µM. For the same compound, at ERα, the DC50 is under 0.01 µM and the Dmax is over 90%. For the same compound, the IC50 on ER is under 0.01 µM.

As to `CC/C(=C(\c1ccc(B(O)O)cc1)c1ccc(N2CCN(CCN3CCN(c4ccc5c(c4)C(=O)N(C4CCC(=O)NC4=O)C5=O)CC3)CC2)cc1)c1ccccc1` (stereo not shown) [Compound 59, (Z)-(4-(1-(4-(4-(2-(4-(2-(2,6-dioxopiperidin-3-yl)-1,3-dioxoisoindolin-5-yl)piperazin-1-yl)ethyl)piperazin-1-yl)phenyl)-2-phenylbut-1-en-1-yl)phenyl)boronic acid], the IC50 in assay [1] lay in the range of 0.01 to 0.05 µM. Further, on ERα, the DC50 lay in the range of 0.01 to 0.05 µM and the Dmax was over 90%. Besides, the IC50 at ER fell in the range of 0.01 to 0.05 µM.

In the case of `CC/C(=C(/c1ccc(OCCN2CCC(C3CCN(c4ccc5c(c4)C(=O)N(C4CCC(=O)NC4=O)C5=O)CC3)CC2)cc1)c1ccc(B(O)O)cc1)c1ccccc1` (stereo not shown) [Compound 33, (Z)-(4-(1-(4-(2-(1′-(2-(2,6-dioxopiperidin-3-yl)-1,3-dioxoisoindolin-5-yl)-[4,4′-bipiperidin]-1-yl)ethoxy)phenyl)-2-phenylbut-1-en-1-yl)phenyl)boronic acid], the IC50 (in assay [1]; at ER) was 0.01 to 0.05 µM in each case. At ERα, the DC50 was under 0.01 µM. The Dmax at ERα was over 90%.

As to `CC/C(=C(/c1ccc(B(O)O)cc1)c1ccc(N2CCC(CN3CCN(c4ccc5c(c4)C(=O)N(C4CCC(=O)NC4=O)C5=O)CC3)CC2)cc1)c1ccccc1` (stereo not shown) [Compound 6, (E)-(4-(1-(4-(4-((4-(2-(2,6-dioxopiperidin-3-yl)-1,3-dioxoisoindolin-5-yl)piperazin-1-yl)methyl)piperidin-1-yl)phenyl)-2-phenylbut-1-en-1-yl)phenyl)boronic acid], the IC50 in assay [1] is over 0.05 µM. Further, at ERα, the half-maximal degradation concentration (DC50) was in the range of 0.01 to 0.05 µM and the Dmax is over 90%. Also, at ER, the IC50 was 0.01 to 0.05 µM.

With `CC/C(=C(\c1ccc(B(O)O)cc1)c1ccc(N2CCC(CN3CCN(c4ccc5c(c4)CN(C4CCC(=O)NC4=O)C5=O)CC3)CC2)cc1)c1ccccc1` (stereo not shown) [Compound 1], the IC50 (in assay [1]; at ER) was 0.01 to 0.05 µM throughout. The DC50 on ERα is under 0.01 µM. For the same compound, the Dmax at ERα was over 90%.

For the compound `CC/C(=C(/c1ccc(B(O)O)cc1)c1ccc(N2CCC(CNC3CCN(c4ccc5c(c4)CN(C4CCC(=O)NC4=O)C5=O)CC3)CC2)cc1)c1ccccc1` (stereo not shown) [Compound 12], in assay [1], the IC50 is under 0.01 µM. Moreover, at ERα, the DC50 was under 0.01 µM and the Dmax is over 90%. On ER, the IC50 was under 0.01 µM.

Consider `CC/C(=C(\c1ccc(B(O)O)cc1)c1ccc(N2CCN(C(=O)N3CCN(c4ccc5c(c4)CN(C4CCC(=O)NC4=O)C5=O)CC3)CC2)cc1)c1ccccc1` (stereo not shown) [Compound 103, (Z)-(4-(1-(4-(4-(4-(2-(2,6-dioxopiperidin-3-yl)-1-oxoisoindolin-5-yl)piperazine-1-carbonyl)piperazin-1-yl)phenyl)-2-phenylbut-1-en-1-yl)phenyl)boronic acid], for which the IC50 in assay [1] is under 0.01 µM. On ERα, the DC50 is under 0.01 µM and the Dmax was over 90%. The IC50 on ER was under 0.01 µM.

As for `CC/C(=C(/c1ccc(B(O)O)cc1)c1ccc(N2CCN(CCN3CCN(c4ccc5c(c4)CN(C4CCC(=O)NC4=O)C5=O)CC3)CC2)cc1)c1ccccc1` (stereo not shown) [Compound 62, (E)-(4-(1-(4-(4-(2-(4-(2-(2,6-dioxopiperidin-3-yl)-1-oxoisoindolin-5-yl)piperazin-1-yl)ethyl)piperazin-1-yl)phenyl)-2-phenylbut-1-en-1-yl)phenyl)boronic acid], in assay [1], the IC50 is 0.01 to 0.05 µM. Also, on ERα, the DC50 is under 0.01 µM and the Dmax was over 90%. The IC50 at ER fell in the range of 0.01 to 0.05 µM.

Take `CC/C(=C(/c1ccc(B(O)O)cc1)c1ccc(N2CCN(CCC3CCN(c4ccc5c(c4)CN(C4CCC(=O)NC4=O)C5=O)CC3)CC2)cc1)c1ccccc1` (stereo not shown) [Compound 68, (E)-(4-(1-(4-(4-(2-(1-(2-(2,6-dioxopiperidin-3-yl)-1-oxoisoindolin-5-yl)piperidin-4-yl)ethyl)piperazin-1-yl)phenyl)-2-phenylbut-1-en-1-yl)phenyl)boronic acid]: the IC50 in assay [1] is under 0.01 µM. In addition, at ERα, the DC50 is under 0.01 µM and the greatest degradation seen (Dmax) was over 90%. Further, the IC50 at ER was under 0.01 µM.

Take `CC/C(=C(\c1ccc(OCCN2CCN(C(=O)N3CCN(c4ccc5c(c4)CN([C@@H]4CCC(=O)NC4=O)C5=O)CC3)CC2)cc1)c1ccc(B(O)O)cc1)c1ccccc1` [Compound 88]: the IC50 in assay [1] was under 0.01 µM. For the same compound, on ERα, the DC50 is under 0.01 µM and the Dmax was over 90%. Besides, the IC50 at ER was under 0.01 µM.

On to `CC/C(=C(\c1ccc(OCCN2CCC(CCN3CCN(c4ccc5c(c4)C(=O)N(C4CCC(=O)NC4=O)C5=O)CC3)CC2)cc1)c1ccc(B(O)O)cc1)c1ccccc1` (stereo not shown) [Compound 28, (E)-(4-(1-(4-(2-(4-(2-(4-(2-(2,6-dioxopiperidin-3-yl)-1,3-dioxoisoindolin-5-yl)piperazin-1-yl)ethyl)piperidin-1-yl)ethoxy)phenyl)-2-phenylbut-1-en-1-yl)phenyl)boronic acid], for which the IC50 is 0.01 to 0.05 µM in assay [1] and over 0.05 µM on ER. Besides, the half-maximal degradation concentration (DC50) at ERα was under 0.01 µM. Moreover, the Dmax on ERα was over 90%.
